Blank lines part the entries; values can stand above or below the molecule they belong to.
Assay: solvent given as SMILES

- emission maximum (in CC#N): 505 nm
- emission maximum (in O): 545 nm
Compound: Nc1n[n+]([O-])c2ccccc2[n+]1[O-]

- emission maximum (in CO): 578 nm
Compound: CC1=CC(/C=C/c2ccc(OCCCN=[N+]=[N-])cc2)=[N+]2C1=C(c1ccccc1)c1c(C)cc(C)n1[B-]2(F)F

- emission maximum (in O): 408 nm
Compound: Fc1ccc2cc3cccc[n+]3cc2c1

- emission maximum (in CC1CCCO1): 348 nm
Compound: c1ccc2c(c1)-c1ccccc1C21c2ccccc2-c2ccncc21

Compound: CC(C)[Si]1(C(C)C)c2cc(N(C)C)ccc2-c2ccc(C(F)(F)F)cc21
- emission maximum (in C1CCCCC1): 402 nm
- emission maximum (in CC#N): 440 nm
- emission maximum (in CCO): 422 nm
- emission maximum (in CCOCC): 410 nm
- emission maximum (in CS(C)=O): 451 nm
- emission maximum (in ClCCl): 423 nm
- emission maximum (in c1ccccc1): 410 nm

- emission maximum (in CCCCCC): 498 nm
- emission maximum (in CO): 497 nm
- emission maximum (in ClCCl): 500 nm
Compound: CC1=CC(C)=[N+]2C1=C(C)c1cccn1[B-]2(F)F

- emission maximum (in CCO): 510 nm
Compound: CN(C)c1ccc(-c2ccc(C#N)s2)s1

- emission maximum (in CCO): 647 nm
- emission maximum (in ClC(Cl)Cl): 642 nm
- emission maximum (in ClCCl): 647 nm
Compound: CCN(CC)c1ccc2cc3c([o+]c2c1)/C(=C/Nc1ccccc1)CCC3

Compound: COc1cccc(/C=C/c2ccccc2)c1
- emission maximum (in C1CCCCC1): 358 nm
- emission maximum (in CC#N): 359 nm
- emission maximum (in CC(C)O): 357 nm
- emission maximum (in CCCCOCCCC): 358 nm
- emission maximum (in CCOC(C)=O): 358 nm
- emission maximum (in CCOCC): 357 nm

- emission maximum (in ClCCl): 490 nm
Compound: c1ccc(-c2nc(-c3ccc(N4c5ccccc5Oc5ccccc54)cc3)nn2-c2ccc(N3c4ccccc4Oc4ccccc43)cc2)nc1

- emission maximum (in O): 450 nm
Compound: CC(=O)Nc1ccc2c(c1)c(=O)c1ccccc1n2CCCCCC(=O)O

- emission maximum (in ClCCl): 426 nm
Compound: COc1cc2c3sc4ccccc4c3c3cncnc3c2c(OC)c1OC

- emission maximum (in C1CCCCC1): 380 nm
- emission maximum (in CO): 380 nm
Compound: C(=C\c1nc2ccccc2o1)/c1ccccc1

- emission maximum (in O): 435 nm
Compound: O=C(O)CCCCCn1c2ccc(Br)cc2c(=O)c2cc(S(=O)(=O)O)ccc21

- emission maximum (in CC#N): 385 nm
- emission maximum (in CCCCCC): 361 nm
- emission maximum (in CO): 392 nm
- emission maximum (in ClC(Cl)Cl): 372 nm
Compound: c1ccc2cc(-c3cc(-c4nccs4)nc(-c4nccs4)c3)ccc2c1

- emission maximum (in ClCCl): 697 nm
Compound: COc1ccc(-c2c3cc4ccccc4cc3c(C#Cc3ccccc3)c3cc4ccccc4cc23)cc1

- emission maximum (in ClCCl): 567 nm
Compound: CCOCCOCCOC(=O)/C=C/C1=CC2=C(c3c(C)cc(C)cc3C)c3cccn3[B-](F)(F)[N+]2=C1

- emission maximum (in CC#N): 504 nm
- emission maximum (in ClCCl): 610 nm
Compound: CC(=O)c1cc(=O)n(C)c2cc(-c3ccc(N(C)C)cc3)sc12

Compound: CC(C)(C)c1ccc2c(c1)c1cc(C(C)(C)C)ccc1n2-c1ccc(C#Cc2cccc(C#Cc3ccc(-n4c5ccc(C(C)(C)C)cc5c5cc(C(C)(C)C)ccc54)cc3)c2)cc1
- emission maximum (in CC#N): 435 nm
- emission maximum (in CCCCC): 359 nm
- emission maximum (in CO): 426 nm
- emission maximum (in Cc1ccccc1): 379 nm
- emission maximum (in ClC(Cl)Cl): 400 nm
- emission maximum (in ClCCl): 416 nm

- emission maximum (in ClCCl): 411 nm
Compound: Clc1ccc(/C=C/c2ccncn2)cc1

Compound: CCCCCCCCN1c2ccc(C#Cc3ccc(C(F)(F)F)cc3)cc2Sc2cc(C=O)ccc21
- emission maximum (in C1CCOC1): 512 nm
- emission maximum (in CC#N): 534 nm
- emission maximum (in CCCCCC): 490 nm
- emission maximum (in CO): 500 nm
- emission maximum (in CS(C)=O): 539 nm
- emission maximum (in Cc1ccccc1): 509 nm
- emission maximum (in ClC(Cl)Cl): 535 nm

- emission maximum (in ClC(Cl)Cl): 680 nm
Compound: COc1ccccc1-c1cc2c(o1)=CC1=Cc3cc4oc(-c5ccccc5OC)cc4n3[B-](F)(F)[N+]=21

Compound: CC(C)(C)c1ccc2c(c1)c1cc(C(C)(C)C)ccc1n2-c1ccc(C(=O)c2ccc(-n3c4ccc(C(C)(C)C)cc4c4cc(C(C)(C)C)ccc43)nc2)cn1
- emission maximum (in C1CCOC1): 496.58 nm
- emission maximum (in Cc1ccccc1): 465.19 nm
- emission maximum (in ClCCl): 532.91 nm

- emission maximum (in ClC(Cl)Cl): 612 nm
Compound: COc1ccc(-c2oc3cccc4c5c(-c6ccc(OC)cc6)/c(=N/S(=O)(=O)C(F)(F)F)oc6cccc(c2c34)c65)cc1

- emission maximum (in CCO): 443 nm
Compound: CC(NC(=O)OC(C)(C)C)C(=O)OCc1ccc2c3cccc4cccc(c5cccc1c52)c43 (configuration not stated)

Compound: CCCCCCCCN1c2ccc(C#Cc3ccc(F)cc3)cc2Sc2cc(C=O)ccc21
- emission maximum (in C1CCOC1): 513 nm
- emission maximum (in CC#N): 538 nm
- emission maximum (in CCCCCC): 488 nm
- emission maximum (in CO): 466 nm
- emission maximum (in CS(C)=O): 542 nm
- emission maximum (in Cc1ccccc1): 507 nm
- emission maximum (in ClC(Cl)Cl): 539 nm

- emission maximum (in CCO): 430 nm
Compound: CCOC(=O)/C=C/c1cc2ccc(O)cc2oc1=O

Compound: CC1(C)c2ccccc2N(c2ccc3c(c2)S(=O)(=O)c2cc(N4c5ccccc5C(C)(C)c5ccccc54)ccc2C3(C)C)c2ccccc21
- emission maximum (in Cc1ccccc1): 466.12 nm
- emission maximum (in ClCCl): 506 nm

- emission maximum (in C1CCOC1): 493 nm
Compound: N#Cc1c(N2CCCCC2)cc(-c2ccc(Br)s2)c2c1CCc1ccccc1-2

- emission maximum (in ClC(Cl)Cl): 670 nm
Compound: CC1(C)C(/C=C2\C(=O)C(/C=C3\Nc4ccccc4C3(C)C)=C2[O-])=[NH+]c2ccccc21

Compound: CCCCCCCCCCCCCCCCN(CCCCCCCCCCCCCCCC)c1ccc(/C=C/c2cc[n+](Cc3cc(C[n+]4ccc(/C=C/c5ccc(N(CCCCCCCCCCCCCCCC)CCCCCCCCCCCCCCCC)cc5)cc4)cc(C[n+]4ccc(/C=C/c5ccc(N(CCCCCCCCCCCCCCCC)CCCCCCCCCCCCCCCC)cc5)cc4)c3)cc2)cc1
- emission maximum (in C1COCCO1): 578 nm
- emission maximum (in CC(C)O): 613 nm
- emission maximum (in CCCCCC): 630 nm
- emission maximum (in CCCCCCCCO): 589 nm
- emission maximum (in CCCCO): 612 nm
- emission maximum (in CCCO): 617 nm
- emission maximum (in CCO): 621 nm
- emission maximum (in CO): 624 nm
- emission maximum (in CS(C)=O): 615 nm
- emission maximum (in Cc1ccc(C)cc1): 556 nm
- emission maximum (in Cc1ccccc1): 559 nm
- emission maximum (in ClC(Cl)Cl): 587 nm
- emission maximum (in ClCCl): 606 nm
- emission maximum (in c1ccccc1): 562 nm

Compound: CCCCC1(c2ccccc2)Nc2c(-c3ccc(N(C)C)cc3)ccc(-c3ccc(N(C)C)cc3)c2N=C1c1ccccc1 (configuration not stated)
- emission maximum (in C1CCOC1): 568 nm
- emission maximum (in CC#N): 588 nm
- emission maximum (in CCCCCC): 530 nm
- emission maximum (in CN(C)C=O): 596 nm
- emission maximum (in Cc1ccccc1): 547 nm
- emission maximum (in ClC(Cl)Cl): 561 nm

- emission maximum (in CC#N): 473 nm
Compound: O=C(O)c1ccc(-c2nc(-c3ccccc3)c3c4ccccc4ccn23)cc1

Compound: O=Cc1cc(C=O)c2ccc3c(N4CCCCC4)cc(N4CCCCC4)c4ccc1c2c43
- emission maximum (in C1COCCO1): 585 nm
- emission maximum (in CC#N): 602 nm
- emission maximum (in CC(C)=O): 598 nm
- emission maximum (in CCCCCC): 557 nm
- emission maximum (in CCO): 609 nm
- emission maximum (in CCOC(C)=O): 587 nm
- emission maximum (in CO): 613 nm
- emission maximum (in CS(C)=O): 609 nm
- emission maximum (in Cc1ccccc1): 582 nm
- emission maximum (in ClCCl): 602 nm

- emission maximum (in ClC(Cl)Cl): 482 nm
Compound: c1ccc(-c2nc(-c3ccccn3)sc2N(c2ccccc2)c2ccccc2)cc1

Compound: CC1=CC(C)=[N+]2C1=C(c1ccc(N3CCCCC3)cc1)c1c(C)cc(C)n1[B-]2(F)F
- emission maximum (in C1CCOC1): 515 nm
- emission maximum (in CC#N): 511 nm
- emission maximum (in CC(=O)C(C)(C)C): 516 nm
- emission maximum (in CC(C)=O): 515 nm
- emission maximum (in CCCCCC): 511 nm
- emission maximum (in CCOC(C)=O): 515 nm
- emission maximum (in CO): 514 nm

Compound: COc1ccc(/C=C/c2cc(/C=C/c3ccc(N(c4ccccc4)c4ccccc4)cc3)nc(/C=C/c3ccc(N(C)C)cc3)n2)cc1
- emission maximum (in C1CCOC1): 436 nm
- emission maximum (in CC#N): 463 nm
- emission maximum (in CC(C)=O): 452 nm
- emission maximum (in CCCCCCC): 398 nm
- emission maximum (in CS(C)=O): 485 nm
- emission maximum (in Cc1ccccc1): 411 nm
- emission maximum (in ClCCl): 548 nm

Source: the Deep4Chem optical property database
